Columns and labels:
Assay type in all cases: cell-based
[1] = molecular target: T1, ETV1 (Homo sapiens, UniProt P50549); experiment: ETV1-dependent reporter assay in HEK293 cells; details: 48 hours
T1 construct: expressed in transfected cells; host or cells: HEK293
T1 sequence (P50549 1-477): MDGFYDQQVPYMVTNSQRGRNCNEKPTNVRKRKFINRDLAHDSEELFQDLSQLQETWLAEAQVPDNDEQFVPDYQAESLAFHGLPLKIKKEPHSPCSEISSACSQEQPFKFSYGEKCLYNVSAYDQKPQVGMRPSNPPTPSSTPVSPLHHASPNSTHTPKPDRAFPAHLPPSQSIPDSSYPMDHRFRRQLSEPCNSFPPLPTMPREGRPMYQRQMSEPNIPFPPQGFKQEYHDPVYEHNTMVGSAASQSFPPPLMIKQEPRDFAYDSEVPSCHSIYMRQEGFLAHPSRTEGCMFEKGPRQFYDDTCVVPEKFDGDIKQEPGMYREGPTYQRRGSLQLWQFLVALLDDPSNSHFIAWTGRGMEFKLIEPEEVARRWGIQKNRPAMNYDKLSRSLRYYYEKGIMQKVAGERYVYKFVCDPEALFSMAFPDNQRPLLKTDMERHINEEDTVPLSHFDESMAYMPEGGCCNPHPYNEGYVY
Procedure: (§1) HEK293 cells were transiently transfected with empty vector (for the NT) or ERG-expressing plasmid as well as pRL-TK (internal control) and PUx3-Luc reporter. Cells were then exposed to DMSO vehicle or compounds at designated doses for 48 hours. Experiments were done in triplicate.
Experiments were done as described above in FIG. 1.1a) except that ERG plasmid was replaced by ETV1 plasmid.

[2] = molecular target: T2, ERG (Homo sapiens, UniProt P11308); experiment: ERG-dependent reporter assay in HEK293 cells; set-up: expressed in transfected cells; host or cells: HEK293; details: PUx3-Luc reporter, 48 hours, designated doses
T2 sequence (P11308 1-486 isoform P11308-3): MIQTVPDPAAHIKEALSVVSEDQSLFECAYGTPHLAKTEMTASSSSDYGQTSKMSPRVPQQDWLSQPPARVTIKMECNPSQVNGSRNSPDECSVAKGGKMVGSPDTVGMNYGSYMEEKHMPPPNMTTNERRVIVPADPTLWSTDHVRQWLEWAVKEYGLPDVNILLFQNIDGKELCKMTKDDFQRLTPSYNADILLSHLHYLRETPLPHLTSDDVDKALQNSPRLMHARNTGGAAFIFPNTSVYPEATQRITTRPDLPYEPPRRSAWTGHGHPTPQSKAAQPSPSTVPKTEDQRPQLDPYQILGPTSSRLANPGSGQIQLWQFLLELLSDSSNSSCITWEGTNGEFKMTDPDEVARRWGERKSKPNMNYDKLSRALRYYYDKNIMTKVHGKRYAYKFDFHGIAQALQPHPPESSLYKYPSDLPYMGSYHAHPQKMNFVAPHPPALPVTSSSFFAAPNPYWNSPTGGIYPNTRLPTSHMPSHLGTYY
Procedure: as §1

[3] = molecular target: T3, human STING (hSTING) (Homo sapiens, UniProt Q86WV6); experiment: hSTING ISRE-luc reporter assay in 293T cells; details: 24 hours
T3 construct: expressed in transfected cells; host or cells: 293T
Procedure: ISRE-luc (reporter), pRL-TK (internal control) and hSTING-expressing plasmids were transiently transfected into 293T cells. Cells were exposed to DMSO vehicle control or compounds for 24 hours. Experiments were done in triplicate.

[4] = molecular target: T4, human GATA2 (Homo sapiens, UniProt P23769); experiment: GATA2-dependent reporter assay in IHH cells; details: GATA-Luc reporter, 48 h
T4 construct: expressed in transfected cells; host or cells: IHH
T4 sequence (P23769 1-480): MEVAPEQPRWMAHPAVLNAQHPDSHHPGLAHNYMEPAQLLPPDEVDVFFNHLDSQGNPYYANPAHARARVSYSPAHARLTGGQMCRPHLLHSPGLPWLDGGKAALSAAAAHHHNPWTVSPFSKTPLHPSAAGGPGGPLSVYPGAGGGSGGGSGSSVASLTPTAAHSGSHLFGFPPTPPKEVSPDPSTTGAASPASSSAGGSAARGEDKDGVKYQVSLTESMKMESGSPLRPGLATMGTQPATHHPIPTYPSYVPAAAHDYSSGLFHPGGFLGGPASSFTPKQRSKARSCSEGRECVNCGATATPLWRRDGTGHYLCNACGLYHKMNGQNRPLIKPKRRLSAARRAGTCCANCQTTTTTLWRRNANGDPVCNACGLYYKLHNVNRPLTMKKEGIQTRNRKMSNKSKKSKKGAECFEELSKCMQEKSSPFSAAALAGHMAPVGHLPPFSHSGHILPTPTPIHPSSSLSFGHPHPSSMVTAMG
Procedure: K7174 is a known GATA2 inhibitor. The IHH cells were transiently transfected with empty vector (for the NT) or human GATA2-expressing plasmid as well as pRL-TK (internal control) and GATA-Luc reporter plasmids. Cells were exposed to DMSO vehicle or compounds for 48 h. Experiments were in triplicate.

[5] = molecular target: T5, human GATA3 (Homo sapiens, UniProt P23771); experiment: GATA3-dependent reporter assay in IHH cells; details: 48 hours
T5 construct: expressed in transfected cells; host or cells: IHH
Procedure: The IHH cells were transiently transfected with empty vector (for the NT) or human GATA3-expressing plasmid as well as pRL-TK (internal control) and GATA-Luc reporter plasmids. Cells were exposed to DMSO vehicle or compounds for 48 hours. Experiments were done in triplicate.

[6] = system: hSTING and/or mSTING; experiment: hSTING- or mSTING-dependent ISRE-luc reporter assay in 293T cells; details: 24 hours
Procedure: ISRE-luc (reporter), pRL-TK (internal control) and hSTING- or mSTING-expressing plasmids were transiently transfected into 293T cells. Cells were exposed to DMSO vehicle control or compounds for 24 hours. Experiments were done in triplicate.

T5 sequence (P23771 whole entry): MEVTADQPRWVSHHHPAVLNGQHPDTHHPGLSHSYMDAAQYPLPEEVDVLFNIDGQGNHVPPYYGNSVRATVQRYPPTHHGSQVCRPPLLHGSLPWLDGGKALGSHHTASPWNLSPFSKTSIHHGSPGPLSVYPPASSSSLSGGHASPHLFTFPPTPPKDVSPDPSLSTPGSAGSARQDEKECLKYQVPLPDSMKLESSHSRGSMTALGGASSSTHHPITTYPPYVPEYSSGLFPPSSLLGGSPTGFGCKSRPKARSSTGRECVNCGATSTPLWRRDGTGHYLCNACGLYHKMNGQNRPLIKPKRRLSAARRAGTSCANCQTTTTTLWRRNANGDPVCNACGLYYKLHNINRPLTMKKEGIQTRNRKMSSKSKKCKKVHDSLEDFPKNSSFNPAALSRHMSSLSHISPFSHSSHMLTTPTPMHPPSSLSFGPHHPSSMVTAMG
T3 sequence (Q86WV6 whole entry H232R): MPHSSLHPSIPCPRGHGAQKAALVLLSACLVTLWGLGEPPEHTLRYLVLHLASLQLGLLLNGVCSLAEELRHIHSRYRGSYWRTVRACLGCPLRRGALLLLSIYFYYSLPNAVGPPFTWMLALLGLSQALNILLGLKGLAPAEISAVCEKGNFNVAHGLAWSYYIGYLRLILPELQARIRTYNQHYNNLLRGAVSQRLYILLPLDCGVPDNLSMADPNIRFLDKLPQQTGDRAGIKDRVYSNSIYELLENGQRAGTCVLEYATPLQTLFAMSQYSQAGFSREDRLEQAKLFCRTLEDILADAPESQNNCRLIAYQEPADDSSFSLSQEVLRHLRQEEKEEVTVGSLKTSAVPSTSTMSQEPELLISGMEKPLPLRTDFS

| ETV1 inhibition in ETV1-dependent reporter assay [1] | ERG inhibition in ERG-dependent reporter assay [2] | activation of hSTING in ISRE-luc reporter assay [3] | GATA2 inhibition in GATA2-dependent reporter assay [4] | Structure (SMILES) | further results |
| --- | --- | --- | --- | --- | --- |
| ETV1 inhibitors | ERG inhibitors | – | – | COc1ccc(-c2nc(Cc3c[nH]c4ccccc34)oc2-c2ccc(O)cc2)cc1 [Compound 697] | – |
| ETV1 inhibitors | – | – | – | c1ccc(-c2nc(Cc3c[nH]c4ccccc34)oc2-c2ccccc2)cc1 [Compound 708] | – |
| – | – | activate hSTING | GATA2 inhibitors | FC(F)(F)c1cccc(/C=C/c2nc(-c3ccccc3)c(-c3ccccc3)o2)c1 [Compound 693] | activity against GATA3 in GATA3-dependent reporter assay ([5]; 10 μM): inactive against GATA3 |
| – | – | activate human STING (hSTING) | GATA2 inhibitors | Oc1cccc(-c2nc(CCCc3c[nH]c4ccccc34)oc2-c2cccc(O)c2)c1 [Compound 676] | activity against GATA3 in GATA3-dependent reporter assay ([5]; 10 μM): inactive against GATA3; activity against GATA3 in GATA3-dependent reporter assay ([5]; compounds at 5 μM): inactive against GATA3 |
| – | – | – | GATA2 inhibitors | C(=C\c1nc(-c2ccccc2)c(-c2ccccc2)o1)/c1ccoc1 [Compound 686] | activity against GATA3 in GATA3-dependent reporter assay ([5]; 10 μM): active against GATA3 |
| ETV1 inhibitors | ERG inhibitors | – | – | Clc1ccccc1-c1nc(Cc2c[nH]c3ccccc23)oc1-c1ccccc1Cl [Compound 662] | – |
| ETV1 inhibitors | – | – | – | O=C1Nc2ccccc2C1Cc1nc(-c2ccccc2)c(-c2ccccc2)o1 (centres unmarked) [Compound 700] | – |
| – | ERG inhibitors | activate hSTING | – | Fc1ccccc1-c1nc(CCCc2c[nH]c3ccccc23)oc1-c1ccccc1F [Compound 678] | – |
| ETV1 inhibitors | – | activate hSTING | GATA2 inhibitors | Fc1cccc(-c2oc(Cc3c[nH]c4ccccc34)nc2-c2ccco2)c1 [Compound 838] | – |
| ETV1 inhibitors | – | activate hSTING | GATA2 inhibitors | COc1cccc(-c2oc(CCCc3c[nH]c4ccccc34)nc2-c2ccc[nH]2)c1 [Compound 830] | – |
| – | – | – | GATA2 inhibitors | c1ccc(-c2nc(CNCCc3c[nH]c4ccccc34)oc2-c2ccccc2)cc1 [Compound 795] | activity against GATA3 in GATA3-dependent reporter assay ([5]; 10 μM): inactive against GATA3; activation of hSTING and/or mSTING in ISRE-luc reporter assay [6]: activate hSTING and/or mSTING |
| – | ERG inhibitors | – | – | COc1ccc(-c2oc(Cc3c[nH]c4ccccc34)nc2-c2ccc(O)cc2)cc1 [Compound 699] | – |
| – | ERG inhibitors | – | – | C(=N\c1oc(-c2ccccc2)nc1Sc1ccccc1)/c1ccccc1 [Compound V151] | – |
| – | – | activate human STING (hSTING) | GATA2 inhibitors | O=C1Nc2ccccc2C1CCCc1nc(-c2cccc(F)c2)c(-c2cccc(F)c2)o1 (centres unmarked) [Compound 770] | activity against GATA3 in GATA3-dependent reporter assay ([5]; compounds at 5 μM): inactive against GATA3 |
| – | – | – | GATA2 inhibitors | FC(F)(F)c1cccc(Cc2nc(-c3ccccc3)c(-c3ccccc3)o2)c1 [Compound 687] | activity against GATA3 in GATA3-dependent reporter assay ([5]; 10 μM): inactive against GATA3 |

Second part, the compound before the results:

| Structure (SMILES) | ETV1 inhibition in ETV1-dependent reporter assay [1] | ERG inhibition in ERG-dependent reporter assay [2] | activation of hSTING in ISRE-luc reporter assay [3] | GATA2 inhibition in GATA2-dependent reporter assay [4] | further results |
| --- | --- | --- | --- | --- | --- |
| Clc1ccc(-c2nc(Cc3c[nH]c4ccccc34)oc2-c2ccc(Cl)cc2)cc1 [Compound 661] | ETV1 inhibitors | ERG inhibitors | – | – | – |
| Fc1ccccc1-c1nc(Cc2c[nH]c3ccccc23)oc1-c1ccccc1F [Compound 655] | ETV1 inhibitors | – | – | – | – |
| FC(F)(F)c1ccccc1-c1nc(Cc2c[nH]c3ccccc23)oc1-c1ccccc1C(F)(F)F [Compound 659] | – | ERG inhibitors | – | – | – |
| Fc1cccc(-c2nc(Cc3c[nH]c4ccccc34)oc2-c2cccc(F)c2)c1 [Compound 650] | ETV1 inhibitors | – | activate hSTING | GATA2 inhibitors | activity against GATA3 in GATA3-dependent reporter assay ([5]; 10 μM): active against GATA3 |
| FC(F)(F)c1ccc(-c2nc(Cc3c[nH]c4ccccc34)oc2-c2ccc(C(F)(F)F)cc2)cc1 [Compound 653] | ETV1 inhibitors | – | activate hSTING | – | – |
| FC(F)(F)c1cccc(-c2nc(Cc3c[nH]c4ccccc34)oc2-c2cccc(C(F)(F)F)c2)c1 [Compound 656] | ETV1 inhibitors | – | activate hSTING | – | – |
| Cc1ccc(-c2nc(Cc3c[nH]c4ccccc34)oc2-c2ccc(C)cc2)cc1 [Compound 654] | ETV1 inhibitors | – | – | – | – |
| Cn1cc(Cc2nc(-c3ccccc3)c(-c3ccccc3)o2)c2ccccc21 [Compound 638] | ETV1 inhibitors | – | – | – | – |
| Cc1cccc(-c2nc(Cc3c[nH]c4ccccc34)oc2-c2cccc(C)c2)c1 [Compound 651] | ETV1 inhibitors | ERG inhibitors | – | – | – |
| COc1cccc(-c2nc(CCc3c[nH]c4ccccc34)oc2-c2cccc(OC)c2)c1 [Compound 641] | ETV1 inhibitors | – | activate hSTING | – | – |
| Fc1ccc2[nH]cc(Cc3nc(-c4ccccc4)c(-c4ccccc4)o3)c2c1 [Compound 636] | ETV1 inhibitors | – | – | – | – |
| Cc1[nH]c2ccccc2c1Cc1nc(-c2ccccc2)c(-c2ccccc2)o1 [Compound 637] | ETV1 inhibitors | – | – | – | – |
| Fc1ccc(-c2nc(Cc3c[nH]c4ccccc34)oc2-c2ccc(F)cc2)cc1 [Compound 652] | ETV1 inhibitors | – | – | – | – |
| COc1ccc2[nH]c(C)c(Cc3nc(-c4ccccc4)c(-c4ccccc4)o3)c2c1 [Compound 639] | – | ERG inhibitors | – | – | – |
| C(=C\c1c[nH]c2ccccc12)/c1nc(-c2ccccc2)c(-c2ccccc2)o1 [Compound 657] | ETV1 inhibitors | – | – | – | – |

— patent US10844051B2, “Substituted oxazoles for the treatment of cancer” (THE ROYAL INSTITUTION FOR THE ADCANCEMENT OF …, priority 2015, dated 2020)
